According to EPA's ToxRefDB 2:

Assays:
[1] = system: rat; settings: Subchronic dermal toxicity, sprague dawley, Topical, dose end: 13 week, group: systemic, systemic / in life observation / clinical signs / erythema
[2] = system: rat; settings: Prenatal developmental toxicity study, sprague dawley, Oral, Gavage/Intubation, dose end: 15 GD
[3] = system: mouse; settings: Combined chronic toxicity/carcinogenicity, b6c3f1, Oral, Feed, dose end: 2 year, group: systemic
[4] = system: rat; settings: Multigenerational reproductive toxicity study, sprague dawley, Oral, Feed, dose end: 2 generation
[5] = system: dog; settings: Chronic toxicity; beagle; Oral; Feed; dose end: 53 week; group: cholinesterase; cholinesterase / cholinesterase / cholinesterase / erythrocyte cholinesterase (che) + cholinesterase / cholinesterase / cholinesterase / …
[6] = system: rabbit; settings: Prenatal developmental toxicity study, chinchilla, Oral, Gavage/Intubation, dose end: 18 GD
[7] = system: rat; settings: Combined chronic toxicity/carcinogenicity, fischer, Oral, Feed, dose end: 2 year
[8] = system: rabbit; settings: Prenatal developmental toxicity study, dutch, Oral, Gavage/Intubation, dose end: 18 GD
[9] = system: rat; settings: Subchronic oral toxicity in rodents, fischer, Feed, dose end: 13 week, group: systemic, systemic / in life observation / body weight / body weight
[10] = system: mouse; settings: Combined chronic toxicity/carcinogenicity, b6c3f1, Oral, Feed, dose end: 102 week
[11] = group: developmental, systemic / in life observation / body weight / fetal weight
[12] = group: maternal, reproductive / reproductive performance / resorptions / resorptions
[13] = group: maternal, systemic / in life observation / body weight / body weight gain + systemic / in life observation / clinical signs / abnormal movements + …
[14] = systemic / in life observation / clinical signs / fur (altered appearance) + systemic / pathology microscopic / skin / fibrosarcoma + …
[15] = systemic / pathology microscopic / skin / fibrosarcoma + systemic / pathology microscopic / skin / rhabdomyosarcoma + systemic / in life …
[16] = group: cholinesterase, cholinesterase / cholinesterase / cholinesterase / brain cholinesterase (che) + cholinesterase / cholinesterase / cholinesterase / …
[17] = group: offspring, developmental / offspring survival late / [other] / [other] + developmental / offspring survival late / viability index / viability index + …
[18] = group: parental, systemic / pathology microscopic / epididymis / vacuolization
[19] = group: parental, systemic / pathology microscopic / epididymis / vacuolization + systemic / organ weight / epididymis / absolute
[20] = group: reproductive, reproductive / offspring survival early / birth index / birth index + reproductive / reproductive performance / fertility / fertility + …
[21] = group: maternal, reproductive / reproductive performance / resorptions / resorptions + reproductive / reproductive performance / aborted / aborted + …
[22] = group: systemic, systemic / in life observation / clinical signs / alopecia + systemic / in life observation / clinical signs / soft stools + systemic / in …
[23] = group: developmental, systemic / in life observation / body weight / fetal weight + developmental / developmental malformation / bone / unossified
[24] = group: maternal, systemic / in life observation / clinical signs / soft stools
[25] = group: maternal, systemic / in life observation / clinical signs / soft stools + reproductive / reproductive performance / resorptions / resorptions + …
[26] = group: cholinesterase, cholinesterase / cholinesterase / cholinesterase / plasma cholinesterase (che)
[27] = group: systemic, systemic / in life observation / body weight / body weight
[28] = group: systemic, systemic / in life observation / body weight / body weight + systemic / clinical chemistry / cholesterol / cholesterol + systemic / organ …

For O=[N+]([O-])C(CO)(CO)CO [2-(Hydroxymethyl)-2-nitro-1,3-propanediol], which LEL [1] is on record?
Its LEL is 1000 mg/kg/day.

And the LOAEL [1]?
The LOAEL was over 1000 mg/kg/day.

What about the NEL [1] of the same molecule?
Its NEL is 500 mg/kg/day.

And the NOAEL [1]?
The NOAEL was at least 1000 mg/kg/day.

What about the LEL [2, 11] of the same molecule?
The LEL was 750 mg/kg/day.

And the LOAEL [2, 11]?
The LOAEL was over 750 mg/kg/day.

And the NEL [2, 11]?
The NEL was 375 mg/kg/day.

What about the NOAEL [2, 11] of the same molecule?
The NOAEL was at least 750 mg/kg/day.

What about the LEL [2, 12] of the same molecule?
The LEL was 375 mg/kg/day.

What about the LOAEL [2, 13] of the same molecule?
The LOAEL was 750 mg/kg/day.

What about the NEL [2, 13] of the same molecule?
The NEL was 50 mg/kg/day.

What about the NOAEL [2, 13] of the same molecule?
Its NOAEL is 375 mg/kg/day.

Which LOAEL [3, 14] does the source give for COP(=S)(OC)Oc1ccc(SC)c(C)c1 [Fenthion] here?
Its LOAEL is over 3 mg/kg/day.

And the NOAEL [3, 14]?
Its NOAEL is at least 3 mg/kg/day.

And the LEL [3, 15]?
Its LEL is 1.5 mg/kg/day.

And the NEL [3, 15]?
The NEL was under 1.5 mg/kg/day.

What about the LEL [4, 16] of the same molecule?
The LEL was 0.7 mg/kg/day.

What about the LOAEL [4, 16] of the same molecule?
Its LOAEL is 0.7 mg/kg/day.

What about the NEL [4, 16] of the same molecule?
Its NEL is 0.1 mg/kg/day.

What about the NOAEL [4, 16] of the same molecule?
The NOAEL was 0.1 mg/kg/day.

And the LEL [4, 17]?
Its LEL is 5 mg/kg/day.

What about the LOAEL [4, 17] of the same molecule?
Its LOAEL is over 5 mg/kg/day.

And the NEL [4, 17]?
The NEL was 0.7 mg/kg/day.

What about the NOAEL [4, 17] of the same molecule?
Its NOAEL is at least 5 mg/kg/day.

What about the LEL [4, 18] of the same molecule?
The LEL was 0.7 mg/kg/day.

What about the LOAEL [4, 18] of the same molecule?
Its LOAEL is 0.7 mg/kg/day.

What about the NEL [4, 19] of the same molecule?
Its NEL is 0.1 mg/kg/day.

And the NOAEL [4, 19]?
The NOAEL was 0.1 mg/kg/day.

And the LEL [4, 20]?
Its LEL is 5 mg/kg/day.

And the LOAEL [4, 20]?
The LOAEL was over 5 mg/kg/day.

What about the NEL [4, 20] of the same molecule?
The NEL was 0.7 mg/kg/day.

What about the NOAEL [4, 20] of the same molecule?
Its NOAEL is at least 5 mg/kg/day.

And the LEL [5]?
Its LEL is 0.258 mg/kg/day.

And the LOAEL [5]?
Its LOAEL is 0.258 mg/kg/day.

And the NEL [5]?
Its NEL is 0.056 mg/kg/day.

And the NOAEL [5]?
Its NOAEL is 0.056 mg/kg/day.

And the LEL [6, 11]?
Its LEL is 18 mg/kg/day.

What about the LOAEL [6, 11] of the same molecule?
Its LOAEL is 18 mg/kg/day.

And the NEL [6, 11]?
Its NEL is 6 mg/kg/day.

What about the NOAEL [6, 11] of the same molecule?
The NOAEL was 6 mg/kg/day.

And the LEL [6, 12]?
Its LEL is 6 mg/kg/day.

What about the LOAEL [6, 12] of the same molecule?
The LOAEL was 6 mg/kg/day.

And the NEL [6, 21]?
Its NEL is 2 mg/kg/day.

What about the NOAEL [6, 21] of the same molecule?
The NOAEL was 2 mg/kg/day.

And the LEL [7, 16]?
The LEL was 0.07 mg/kg/day.

What about the LOAEL [7, 16] of the same molecule?
The LOAEL was 0.07 mg/kg/day.

And the NEL [7, 16]?
Its NEL is under 0.07 mg/kg/day.

And the NOAEL [7, 16]?
The NOAEL was under 0.07 mg/kg/day.

What about the LEL [7, 22] of the same molecule?
Its LEL is 0.3 mg/kg/day.

What about the LOAEL [7, 22] of the same molecule?
The LOAEL was 0.3 mg/kg/day.

And the NEL [7, 22]?
Its NEL is 0.07 mg/kg/day.

And the NOAEL [7, 22]?
The NOAEL was 0.07 mg/kg/day.

And the LEL [8, 16]?
Its LEL is 2.75 mg/kg/day.

And the LOAEL [8, 16]?
The LOAEL was 2.75 mg/kg/day.

And the NEL [8, 16]?
The NEL was 1 mg/kg/day.

What about the NOAEL [8, 16] of the same molecule?
The NOAEL was 1 mg/kg/day.

And the LEL [8, 11]?
Its LEL is 2.75 mg/kg/day.

And the LOAEL [8, 23]?
The LOAEL was over 7.5 mg/kg/day.

What about the NEL [8, 23] of the same molecule?
Its NEL is 1 mg/kg/day.

And the NOAEL [8, 23]?
Its NOAEL is at least 7.5 mg/kg/day.

And the LEL [8, 24]?
Its LEL is 2.75 mg/kg/day.

And the LOAEL [8, 24]?
The LOAEL was 2.75 mg/kg/day.

And the NEL [8, 25]?
Its NEL is 1 mg/kg/day.

And the NOAEL [8, 25]?
Its NOAEL is 1 mg/kg/day.

What about the LEL [9] of the same molecule?
The LEL was 16 mg/kg/day.

What about the LOAEL [9] of the same molecule?
The LOAEL was 16 mg/kg/day.

What about the NEL [9] of the same molecule?
The NEL was 8 mg/kg/day.

What about the NOAEL [9] of the same molecule?
The NOAEL was 8 mg/kg/day.

What about the LEL [10, 26] of the same molecule?
The LEL was 0.03 mg/kg/day.

And the LOAEL [10, 26]?
Its LOAEL is 0.03 mg/kg/day.

What about the NEL [10, 26] of the same molecule?
Its NEL is under 0.03 mg/kg/day.

What about the NOAEL [10, 26] of the same molecule?
The NOAEL was under 0.03 mg/kg/day.

What about the LEL [10, 27] of the same molecule?
Its LEL is 1.95 mg/kg/day.

What about the LOAEL [10, 27] of the same molecule?
Its LOAEL is 1.95 mg/kg/day.

What about the NEL [10, 28] of the same molecule?
The NEL was 0.4 mg/kg/day.

And the NOAEL [10, 28]?
The NOAEL was 0.4 mg/kg/day.
